For series [1] the following is noted: veliparib in combination with topotecan; cited from earlier work.
A further series has as its system patients with mTNBC. Put plainly: Phase 1b/2 open-label study of SG in combination with talazoparib (NCT04039230). The series is classed as in vivo, human. To be noted: every 21 days. On the procedure: Study Design: In a Phase 1b/2, open-label study, SG was administered in combination with talazoparib for patients with mTNBC (clinicaltrials.gov#NCT04039230; FIG. 2A). Treatment cycles were continued until unacceptable toxicity or progression of disease at the discretion of the treating physician. Within 4 weeks prior to the first dose of study treatment administration, baseline evaluations were completed which included patient medical and surgical history, a physical examination with vital signs and performance evaluation, laboratories, and tumor assessment imaging. Once on active treatment, patients were administered SG and talazoparib over a 21 day cycle or 28 day cycle. […] All patients were monitored closely over the course of their treatment and NCI CTC v5.0 was used to grade all adverse events and provide dose reduction, delay, or cessation guidelines in the event of treatment-related toxicity. […]
Study Population: Patients enrolled were 18 years of age or older with histological or cytological confirmation of TNBC as determined by the local institution, with metastatic disease documented by CT or MRI imaging, and currently have measurable disease by CT/MRI. […]
Endpoints: Safety and tolerability of SG in combination with talazoparib was evaluated from adverse events, standard safety laboratories, physical examination, vital signs, and EKG. […]

Another series relates to TNBC xenografts. To be noted: nude mice bearing TNBC xenografts; independent of BRCA1/2 mutation status; cited from earlier work.
The target of series [2] is T1, TOP1 cleavage complexes (TOP1CC) (Homo sapiens, UniProt P11387).
T1 construct: endogenous in cells; host or cells: MDA-MB-468 breast cancer cells (immunofluorescence); TNBC cell models (RADAR)
T1 sequence (P11387 1-765): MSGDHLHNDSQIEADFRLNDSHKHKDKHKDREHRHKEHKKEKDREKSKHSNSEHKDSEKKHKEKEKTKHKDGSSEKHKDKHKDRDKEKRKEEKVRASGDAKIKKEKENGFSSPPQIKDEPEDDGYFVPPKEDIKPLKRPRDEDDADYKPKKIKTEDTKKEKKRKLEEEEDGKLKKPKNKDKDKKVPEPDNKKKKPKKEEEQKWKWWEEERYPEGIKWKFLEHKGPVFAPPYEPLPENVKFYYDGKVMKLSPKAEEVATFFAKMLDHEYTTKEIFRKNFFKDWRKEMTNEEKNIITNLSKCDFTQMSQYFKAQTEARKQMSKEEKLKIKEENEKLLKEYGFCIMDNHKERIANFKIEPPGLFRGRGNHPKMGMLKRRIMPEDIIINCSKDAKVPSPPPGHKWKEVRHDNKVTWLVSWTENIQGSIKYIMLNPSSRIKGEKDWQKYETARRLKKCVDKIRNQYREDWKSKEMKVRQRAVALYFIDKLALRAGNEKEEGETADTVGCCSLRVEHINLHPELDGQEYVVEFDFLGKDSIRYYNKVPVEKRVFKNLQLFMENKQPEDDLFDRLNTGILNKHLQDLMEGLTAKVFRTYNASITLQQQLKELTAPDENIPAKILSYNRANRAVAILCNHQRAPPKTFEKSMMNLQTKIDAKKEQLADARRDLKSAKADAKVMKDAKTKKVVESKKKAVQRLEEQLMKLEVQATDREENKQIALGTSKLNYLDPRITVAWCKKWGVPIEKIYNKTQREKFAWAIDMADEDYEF
Put plainly: TOP1CC detection by RADAR assay and immunofluorescence. The series is classed as cell-based. The procedure:
Modification of the RADAR assay for detection of TOP1CC: Detection of TOP1CC was performed according to the published protocol (PMID: 34408146) with minor modification. After SG and/or TZP treatment, 1×10^6 cells per condition were washed with 1×PBS and lysed with 600 μl DNAzol (Invitrogen) at 4° C. for 10 min, followed by precipitation with 300 μl 100% ethanol. The nucleic acids were collected by centrifugation at 15,000 rpm for 10 min at 4° C., washed with 75% ethanol twice and resuspended in 200 μl TE buffer. The samples were then heated at 65° C. for 15 min, followed by shearing with sonication (40% output for 10 s pulse and 10 s rest for four times). […] The concentration of the sample was quantified by NanoDrop. […]
Immunofluorescence: To visualize TOP1CC by immunofluorescence, cells were plated into 96-well plates having #1.5 glass coverslips (Cellvis, P98-1.5H-N). […] Images were compiled and quantified using ImageJ software.
Without wishing to be bound by any theory, sequential PARPi is believed to enhance SG toxicity through stabilization of TOP1CC that persist following SG washout due to the high delivered SN38 concentration in tumor cells (FIG. 3A). TOP1CC was quantified by two methods: the RADAR (Rapid Approach to DNA Adduct Recovery) assay, which detects TOP1 covalently bound to DNA, and by immunofluorescence. […]

Series [3] has as its system phosphorylated histone H2AX (γH2AX). The series is described as follows: Flow cytometry of phosphorylated histone H2AX (γH2AX). The series is classed as cell-based. On the procedure: Flow Cytometry: For flow cytometry detection of γH2AX (also known as g-H2AX), 1×10^6 cells were collected and fixed with 4% paraformaldehyde at 4° C. for 20 min and then permeabilized with 0.25% Triton X-100 in PBS. After blocking with 2% BSA in PBS at 4° C. for 20 min, the cells were stained with Alexa Fluor® 488 conjugated anti-phospho Histone H2A.X antibody (EMD Millipore, clone JBW301, #05-636-AF488) at 4° C. for 1 h. The cells were then washed twice with 2% BSA in PBS and counterstained with DAPI (Abcam, #ab228549). For flow cytometry detection of apoptotic cells, 1×10^6 cells were collected, and the staining was performed by using eBioscience™ Annexin V Apoptosis Detection Kit APC (Invitrogen, #88-8007) according to manufacturer's instruction. Samples were examined using a FACSAria flow cytometer. […]
Without wishing to be bound by any theory, sequential PARPi is believed to enhance SG toxicity through stabilization of TOP1CC that persist following SG washout due to the high delivered SN38 concentration in tumor cells (FIG. 3A). TOP1CC was quantified by two methods: the RADAR (Rapid Approach to DNA Adduct Recovery) assay, which detects TOP1 covalently bound to DNA, and by immunofluorescence. […] Persistent TOP1CC are expected to lead to DNA damage including double-strand DNA breaks, which were quantified using flow cytometry to assess phosphorylated histone H2AX (γH2AX) staining. […]
On the technique in general: In flow cytometry, cells or beads pass a laser one at a time.

Series [4] has as its system patients with previously treated mTNBC. To be noted: phase III ASCENT; cited from earlier work.
For series [5], the system named is normal diploid cells (WI-38). Put plainly: In vitro cytotoxicity of sequential SG then talazoparib in normal diploid cells. In kind it is cell-based. The procedure:
Cell Lines and Cell Culture: All cell lines were obtained from the MGH Center for Molecular Therapeutics cell bank in and underwent high-density SNP typing to confirm their identity. All experiments shown were performed within less than 6 months' passage of all lines since acquisition. Cells were maintained at 37° C. in 5% CO2. MDA-MB-468 cells were grown in RPMI (Lonza) supplemented with 10% FBS (SAFC), 1% penicillin (Gibco), streptomycin (Gibco). WI-38 cells were grown in DMEM (Lonza) supplemented with 10% FBS (SAFC), 1% penicillin (Gibco), streptomycin (Gibco).
TROP2-expressing TNBC cells or normal diploid cells were exposed to SG, followed by washout, then PARPi treatment with Talazoparib.

The test system of a further series is colorectal cancer. The settings on record: continuous olaparib administration; cited from earlier work.

As for `CC[C@@]1(O)C(=O)OCc2c1cc1n(c2=O)Cc2cc3c(CN(C)C)c(O)ccc3nc2-1` [topotecan], the “MTD in the combination relative to single-agent MTD” value in series [1] is given as 40%.

Regarding `C[C@]1(c2nc3c(C(N)=O)cccc3[nH]2)CCCN1` [veliparib], the “MTD in the combination relative to single-agent MTD” value in series [1] is recorded as 3%.

For the compound `Cn1ncnc1[C@H]1c2n[nH]c(=O)c3cc(F)cc(c23)N[C@@H]1c1ccc(F)cc1` [talazoparib], the “recommended phase-2 dose (R2PD)” value in the series on patients with mTNBC (talazoparib on days 15-21 after SG) came out at 1 mg. In addition, in the series on TNBC xenografts, the “tumor growth inhibition in combination with sacituzumab govitecan” value (from here on “tumor growth inhibition in combination”) is “Synthetic lethality and synergistic inhibition of tumor growth”.

Take sacituzumab govitecan [SG]: the “recommended phase-2 dose (R2PD)” value in the series on patients with mTNBC (sequential SG on days 1,8 with talazoparib) is given as 10 mg/kg. The “TOP1CC following SG washout” value in series [2] was “resolved entirely within two hours”. Moreover, the “DNA damage (γH2AX staining) after SG washout” value in series [3] was “resolution of DNA damage within 24 hours”. In addition, in series [4], the median overall survival is recorded as 12.1 months and the median progression-free survival was 5.6 months. For the same compound, in series [5], the “SG sensitivity (cytotoxicity)” value was “little SG sensitivity”.

Regarding `CNCc1ccc(-c2[nH]c3cc(F)cc4c3c2CCNC4=O)cc1` [rucaparib], the “tumor growth inhibition in combination” value in the series with TNBC xenografts was “Synthetic lethality and synergistic inhibition of tumor growth”.

Turning to `O=C(c1cc(Cc2n[nH]c(=O)c3ccccc23)ccc1F)N1CCN(C(=O)C2CC2)CC1` [olaparib], in the series on colorectal cancer, the “toxicity of the combination with irinotecan” value is “higher-than-expected toxicities and considered intolerable”. Moreover, the “tumor growth inhibition in combination” value in the series with TNBC xenografts is “Synthetic lethality and synergistic inhibition of tumor growth”.
